Data: ChEMBL document CHEMBL1201862, “PubChem BioAssay data set” (2004)
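Dose response: 5 concentrations. Exposure: 48 h. Format: 96-well plates. Endpoint: linear interpolation; highest concentration if not reached. Here, GI50 denotes the concentration required for 50% inhibition of growth.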 The source made the active and inactive calls. No stated cut-off is given here; in the data, active = GI50 up to about 1.1 µM and inactive = higher.

How the values were obtained:
Assay in all cases: NCI tumour cell line growth inhibition, 48 h
[1] = test system: K562
[2] = test system: HCC 2998
[3] = test system: CAKI-1
[4] = test system: M14
[5] = test system: KM12
[6] = test system: HT-29
[7] = test system: U-251
[8] = test system: EKVX
[9] = test system: Hs-578T
[10] = test system: NCI-H460
[11] = test system: OVCAR-8
[12] = test system: NCI-H522
[13] = test system: SNB-75
[14] = test system: OVCAR-5
[15] = test system: RPMI-8226
[16] = test system: COLO 205
[17] = test system: MDA-N
[18] = test system: SK-MEL-5
[19] = test system: BT-549
[20] = test system: SF-539

| SMILES | GI50 [1] | GI50 [2] | GI50 [3] | GI50 [4] | GI50 [5] | GI50 [6] | GI50 [7] | GI50 [8] | GI50 [9] | GI50 [10] | GI50 [11] | GI50 [12] | GI50 [13] | GI50 [14] | GI50 [15] | GI50 [16] | GI50 [17] | GI50 [18] | GI50 [19] | GI50 [20] |
| --- | --- | --- | --- | --- | --- | --- | --- | --- | --- | --- | --- | --- | --- | --- | --- | --- | --- | --- | --- | --- |
| CCOP(=O)(Nc1ccc(-c2ccc(N)cc2)cc1)OCC | > 100 µM (inactive) | > 100 µM (inactive) | > 100 µM (inactive) | > 100 µM (inactive) | > 100 µM (inactive) | > 100 µM (inactive) | > 100 µM (inactive) | 38.9 µM (inactive) | 43.6 µM (inactive) | > 100 µM (inactive) | > 100 µM (inactive) | > 100 µM (inactive) | > 100 µM (inactive) | 51.6 µM (inactive) | > 100 µM (inactive) | > 100 µM (inactive) | > 100 µM (inactive) | > 100 µM (inactive) | > 100 µM (inactive) | – |
| O=[N+]([O-])C(=C1NCCN1)/C(Cl)=C(/Cl)N1CCOCC1 | > 100 µM (inactive) | > 100 µM (inactive) | > 100 µM (inactive) | > 100 µM (inactive) | > 100 µM (inactive) | > 100 µM (inactive) | > 100 µM (inactive) | > 100 µM (inactive) | > 100 µM (inactive) | > 100 µM (inactive) | > 100 µM (inactive) | – | > 100 µM (inactive) | > 100 µM (inactive) | > 100 µM (inactive) | > 100 µM (inactive) | > 100 µM (inactive) | – | > 100 µM (inactive) | > 100 µM (inactive) |
| CCOC(=O)CCNC(=O)c1cc(C)cc2c1Oc1c(cc(C)cc1C(=O)NCCC(=O)OCC)S2 | > 100 µM (inactive) | > 100 µM (inactive) | 65.6 µM (inactive) | > 100 µM (inactive) | > 100 µM (inactive) | > 100 µM (inactive) | 62.5 µM (inactive) | > 100 µM (inactive) | 34 µM (inactive) | – | 78.3 µM (inactive) | 40.6 µM (inactive) | 20.7 µM (inactive) | > 100 µM (inactive) | > 100 µM (inactive) | > 100 µM (inactive) | 88.3 µM (inactive) | 35.9 µM (inactive) | 68.7 µM (inactive) | 50.4 µM (inactive) |
| Cc1ccc(/C=N/Nc2cnccn2)s1 | 65.2 µM (inactive) | > 100 µM (inactive) | > 100 µM (inactive) | > 100 µM (inactive) | > 100 µM (inactive) | 47.1 µM (inactive) | > 100 µM (inactive) | 80.5 µM (inactive) | > 100 µM (inactive) | – | > 100 µM (inactive) | 83 µM (inactive) | > 100 µM (inactive) | > 100 µM (inactive) | > 100 µM (inactive) | > 100 µM (inactive) | 99.3 µM (inactive) | > 100 µM (inactive) | > 100 µM (inactive) | > 100 µM (inactive) |
| Clc1nc2n(c1/C=C/c1cccs1)CCS2 | 47.2 µM (inactive) | 35.5 µM (inactive) | 18.8 µM (inactive) | 38.7 µM (inactive) | 37.7 µM (inactive) | 24.3 µM (inactive) | 28.1 µM (inactive) | 5.43 µM (inactive) | 30.1 µM (inactive) | – | 29.7 µM (inactive) | 35.1 µM (inactive) | 55 µM (inactive) | 27.3 µM (inactive) | 15.7 µM (inactive) | 37.8 µM (inactive) | 36.5 µM (inactive) | 17.1 µM (inactive) | 26.6 µM (inactive) | – |
| CC(=O)O[C@H]1CC[C@@]2(C)C(=CC[C@@H]3[C@@H]2CC[C@]2(C)c4c(cc(C#N)c(=N)n4C(C)=O)C[C@@H]32)C1 | 4.06 µM (inactive) | 23.2 µM (inactive) | 30.8 µM (inactive) | 16.9 µM (inactive) | 17.9 µM (inactive) | 17.9 µM (inactive) | 29 µM (inactive) | 15.9 µM (inactive) | 25.5 µM (inactive) | 16.4 µM (inactive) | 16.7 µM (inactive) | 17.9 µM (inactive) | 19.1 µM (inactive) | 27.4 µM (inactive) | – | 16.1 µM (inactive) | 21 µM (inactive) | 15.5 µM (inactive) | 15.4 µM (inactive) | – |
| COc1cc(C2S/C(=C/c3ccccc3)C(=O)N2c2ccccn2)cc(OC)c1OC (stereo not given) | 11.9 µM (inactive) | 15.7 µM (inactive) | 20.1 µM (inactive) | 15.1 µM (inactive) | 12.9 µM (inactive) | 11 µM (inactive) | 10.2 µM (inactive) | 24.4 µM (inactive) | 20.2 µM (inactive) | – | 9.2 µM (inactive) | 7.18 µM (inactive) | 6.87 µM (inactive) | 20.8 µM (inactive) | 7.53 µM (inactive) | 29 µM (inactive) | 14.1 µM (inactive) | 20.2 µM (inactive) | 13.9 µM (inactive) | – |
| CC(C)=CCC[C@@H](C)C1=C(O)C(=O)C(C)=C(Nc2ccccc2Br)C1=O | 10.8 µM (inactive) | 30.4 µM (inactive) | 18.6 µM (inactive) | 15.2 µM (inactive) | 12.5 µM (inactive) | 19.6 µM (inactive) | 8.91 µM (inactive) | 17.3 µM (inactive) | 13.8 µM (inactive) | 13.4 µM (inactive) | 7.57 µM (inactive) | – | 15.4 µM (inactive) | 20.3 µM (inactive) | 8.24 µM (inactive) | 15.9 µM (inactive) | 14.1 µM (inactive) | 11.5 µM (inactive) | 14 µM (inactive) | 8.59 µM (inactive) |
| CC[C@@H]1CN2CCC1C[C@@H]2C(O)c1ccnc2ccc(OCCN3CCN(CCOc4ccc5nccc(C(O)[C@@H]6C[C@@H]7CCN6C[C@@H]7CC)c5c4)CC3)cc12 (stereo not given in full) | 2.63 µM (inactive) | 9.48 µM (inactive) | 17.9 µM (inactive) | 12.8 µM (inactive) | 16.1 µM (inactive) | 15.7 µM (inactive) | 16.7 µM (inactive) | 17.1 µM (inactive) | 15.3 µM (inactive) | 17.3 µM (inactive) | 19.3 µM (inactive) | 12 µM (inactive) | – | 18.6 µM (inactive) | 2.59 µM (inactive) | 14.7 µM (inactive) | 12.9 µM (inactive) | 15 µM (inactive) | 19.1 µM (inactive) | 13.8 µM (inactive) |
| O=C(N/N=C(\c1ccccc1)c1ccccn1)NC1CCCCC1 | 5.46 µM (inactive) | 56.4 µM (inactive) | 57 µM (inactive) | 30 µM (inactive) | 59.3 µM (inactive) | 59.2 µM (inactive) | 51.1 µM (inactive) | 41.8 µM (inactive) | > 100 µM (inactive) | 48 µM (inactive) | – | 47.4 µM (inactive) | > 100 µM (inactive) | > 100 µM (inactive) | 48.1 µM (inactive) | 65 µM (inactive) | > 100 µM (inactive) | 40.1 µM (inactive) | 42.4 µM (inactive) | – |
| C/C(=N\Nc1nc2ccccc2s1)c1cccc[n+]1[O-] | 31.4 µM (inactive) | 0.0252 µM (active) | 32.4 µM (inactive) | 32.2 µM (inactive) | 30.1 µM (inactive) | 41.5 µM (inactive) | 47 µM (inactive) | 2.33 µM (inactive) | > 100 µM (inactive) | 46.2 µM (inactive) | 30.2 µM (inactive) | 26.7 µM (inactive) | – | 2.33 µM (inactive) | 41.1 µM (inactive) | 32.2 µM (inactive) | 76.2 µM (inactive) | 32.8 µM (inactive) | > 100 µM (inactive) | 45.1 µM (inactive) |
| COC(=O)C1CCC(=S)N1C(=O)OCc1ccccc1 (stereo not given) | > 100 µM (inactive) | 62.1 µM (inactive) | > 100 µM (inactive) | > 100 µM (inactive) | > 100 µM (inactive) | > 100 µM (inactive) | 81.8 µM (inactive) | 49 µM (inactive) | 49.4 µM (inactive) | 39.5 µM (inactive) | > 100 µM (inactive) | 86.7 µM (inactive) | > 100 µM (inactive) | > 100 µM (inactive) | > 100 µM (inactive) | > 100 µM (inactive) | > 100 µM (inactive) | > 100 µM (inactive) | > 100 µM (inactive) | – |
| Cc1cccc2c(=O)c3cccc([C@H](C)C(=O)O)c3oc12 | > 100 µM (inactive) | > 100 µM (inactive) | > 100 µM (inactive) | > 100 µM (inactive) | > 100 µM (inactive) | > 100 µM (inactive) | > 100 µM (inactive) | > 100 µM (inactive) | > 100 µM (inactive) | > 100 µM (inactive) | > 100 µM (inactive) | > 100 µM (inactive) | – | – | > 100 µM (inactive) | > 100 µM (inactive) | > 100 µM (inactive) | > 100 µM (inactive) | > 100 µM (inactive) | > 100 µM (inactive) |
| O=C(O)CCSc1ncnc2[nH]cnc12 | > 100 µM (inactive) | > 100 µM (inactive) | > 100 µM (inactive) | > 100 µM (inactive) | > 100 µM (inactive) | > 100 µM (inactive) | > 100 µM (inactive) | > 100 µM (inactive) | > 100 µM (inactive) | > 100 µM (inactive) | > 100 µM (inactive) | > 100 µM (inactive) | – | > 100 µM (inactive) | > 100 µM (inactive) | > 100 µM (inactive) | > 100 µM (inactive) | > 100 µM (inactive) | > 100 µM (inactive) | > 100 µM (inactive) |
